The subject of data set [1] is mammalian cells. Conditions: compared with Amphotericin B; cited from earlier work.
Data set [2] has as its system fungal organisms. The note with it: compared with Amphotericin B; cited from earlier work.
Data set [3] deals with Candida albicans. As to the kind of experiment: minimum inhibitory concentration, Candida albicans, broth microdilution. Conditions: 24 h, 37° C. The format is cell-based. On the procedure: ^c minimum inhibitory concentration (see Example IV); three different
strains of Candida albicans were tested; all tests were done in broth
microdilution in yeast nitrogen baseglucose at 37° C. for 24 hours
the initial inoculum was 1 × 10^4 blastospores per ml
The minimum inhibitory concentration reported in Table I was obtained, and further confirmed as reported in Table II, by the methods described in the following Example IV.
(§1) Microorganism inocula was harvested from one to five day old cultures grown on Sabourand's dextrose agar. After two washes with sterile saline, the inocula were counted utilizing a hemacytometer and diluted or concentrated as required to 1×10^4 blastospores per ml. Sterile molten agar (at 50° C.) was inoculated, allowed to cool, and 10 mm diameter discs impregnated (from […] stock solutions) with each of the test compounds was placed on the surface of the agar. Zones of inhibition were measured after incubating the plates at 30° C. for 24-48 hours.
(§2) The compounds were then screened against three strains of three species of microorganisms: Candida albicans, Cryptococcus neoformans, and Aspergillus fumigatus using a conventional double dilution technique. All tests reported in Table II were done by broth microdilution in yeast nitrogen base-glucose using an inoculum of 1×10^4 blastospores per ml; the cultures were incubated at 37° C. for 24 hours, and the minimum concentration (in μg/ml) that prevents visible growth was recorded as the minimum inhibitory concentration.

Data set [4] can be described thus: critical micelle concentration in PBS by molar absorptivity at 409 nm. The format is physicochemical. The note with it: PBS (pH 7.4), 37° C. The text has this: In its monomeric state, Amphotericin B has a characteristic absorption band at 409 nm; upon aggregation, however, its apparent molar absorptivity decreases in magnitude [see Biochemistry 30:5707 (1991)]. Thus, by measuring its molar absorptivity as a function of the reciprocal of the macrolide concentration, one can estimate the critical micelle concentration. This can be shown mathematically by allowing T, m and P to represent the total, monomeric, and micellar concentrations (i.e. the concentration of the drug that is present in micellar form) of the macrolide, respectively, and if ε represents the apparent molar absorptivity and εm and εp are the molar absorptivity for the monomeric and micellar components, respectively, then it can be shown that ε=εp +(εm -εp)m/T. At concentrations in excess of the critical micelle concentration, m is a constant and ε is inversely proportional to T.
Using the method described previously, the critical micelle concentrations for Amphotericin B and the conjugates described in the preceding examples were determined and are reported in Table I describing the aggregation, antifungal and hemolytic properties of […] macrolide antibiotics (in μM amounts) according to the present invention.
^a critical micelle concentration was determined in PBS (pH 7.4) at […]

A short description of data set [5]: solubility in water. Format: physicochemical.
Data set [6] in a line: in vitro. The note with it: human, red blood cells.
For data set [7], the system named is Aspergillus fumigatus. As to the kind of experiment: minimum inhibitory concentration, Aspergillus fumigatus, broth microdilution. Format: cell-based. Conditions: 24 h, 37° C. On the procedure: as §1, §2
Background: Broth dilution looks for growth in wells or tubes with falling amounts of substance.

For data set [8], the system named is Candida albicans. Kind of data set: K+ release from fungal cells. The format is cell-based. Conditions: 3×10^7 fungal cells/ml, read-out: concentration for releasing 50% of the K+ from fungal cells.
The subject of data set [9] is Cryptococcus neoformans. As to the kind of experiment: minimum inhibitory concentration, Cryptococcus neoformans, broth microdilution. Format: cell-based. Conditions: 24 h. On the procedure:
as §1, §2

The conditions of data set [10]: in solution; literature; cited from earlier work.
Data set [11] relates to human red blood cells. Kind of data set: hemolysis, 50% release of hemoglobin from human red blood cells. The note with it: hemoglobin release from human red blood cells.
Data set [12] deals with Candida albicans (isolate NIH A). As to the kind of experiment: survival of mice infected with Candida albicans (Example V). Conditions: i.p. once per day for ten days, Example II 30 mg/kg, Amphotericin B 1 mg/kg. The format is in vivo, Candida albicans in ICR mice. The text has this:
Ten immunocompetent ICR mice weighing 30 g each in three groups were inoculated intravenously with 3.2×10^6 colony forming units of Candida albicans (isolate NIH A) per mouse.

Data set [13] has as its system Histoplasma capsulatum, Cryptococcus neoformans, and several species of Candida, including C. glabrata and C. albicans. The note with it: cited from earlier work.
[14] abbreviates: C. albicans (1), read-out: minimum inhibitory concentration.
The mark [15] stands for this setting: C. albicans (2), read-out: minimum inhibitory concentration.
Setting [16] is: C. albicans (3), read-out: minimum inhibitory concentration.
Setting [17] is: three strains of Candida albicans, yeast nitrogen base-glucose, 1 × 10^4 blastospores per ml, read-out: MIC (minimum inhibitory concentration).
[18] abbreviates: C. neoformans (1), 37° C., read-out: minimum inhibitory concentration.
[19] abbreviates: C. neoformans (2), 37° C., read-out: minimum inhibitory concentration.
The mark [20] stands for this setting: read-out: minimum inhibitory concentration, C. neofornams (3), 37° C.

Molecules are shown by their SMILES. pEC50: −log10 of the molar value. In brackets after ≈: the same amount, converted by molar mass. Like-named read-outs stand apart in the source and are kept apart here.

As a reminder, the solubility is the concentration that dissolves in the medium under given conditions. Read a high solubility as a readily soluble substance. Usually HC50 stands for the concentration giving 50% haemolysis. Low values mean more damage to red cells, high ones less damage to red cells.

Take `C[C@@H]1[C@H](O)[C@@H](C)/C=C/C=C/CC/C=C/C=C/C=C/C=C/C(O[C@H]2O[C@H](C)[C@@H](O)[C@H](N)[C@@H]2O)CC2O[C@](O)(CC(O)C(O)CCC(O)CC(O)CC(O)CC(=O)O[C@H]1C)CC(O)C2C(=O)O` (stereo partly shown) [Nystatin]: the “toxicity toward mammalian cells” value in [1] was “may be far less toxic toward mammalian cells”. Moreover, the “potency against fungal organisms” value in [2] is listed as “somewhat lower in potency against fungal organisms as compared with Amphotericin B”.
Take `COCCNC(=O)[C@H]1[C@@H]2C[C@@H](O[C@@H]3O[C@H](C)[C@@H](O)[C@H](N)[C@@H]3O)/C=C/C=C/C=C/C=C/C=C/C=C/C=C/[C@H](C)[C@@H](O)[C@@H](C)[C@H](C)OC(=O)C[C@H](O)C[C@H](O)CC[C@@H](O)[C@H](O)C[C@H](O)C[C@](O)(C[C@@H]1O)O2` [Example I]: the MIC in data set [3] (setting [14]) is 1.6 µg/mL; in [3] (setting [15]), 1.6 µg/mL; in [3] (setting [16]), 1.6 µg/mL; in [3] (setting [17]), 1.6 µM; in data set [7] (A. fumigatus (1)), 3.2 µg/mL (≈ 3.26 µM); in data set [7] (A. fumigatus (2)), 3.2 µg/mL (≈ 3.26 µM). In addition, the MIC in [7] (A. fumigatus (3)) was 1.6 µg/mL (≈ 1.63 µM); in data set [9] (setting [18]), 1.6 µg/mL (≈ 1.63 µM); in data set [9] (setting [19]) it was 3.2 µg/mL (≈ 3.26 µM); in [9] (setting [20]), 0.8 µg/mL (≈ 0.815 µM). Further, in [4], the “cmc (critical micelle concentration)” value was determined as 4.4 µM. The compound also came in with a solubility in data set [5] of less than 10 µg/mL. Further, in data set [6], the concentration for 50% haemolysis (HC50) at 1 h came to 7.9 µM. Also, the pEC50 in data set [8] is 6.10.
With `C[C@@H]1[C@H](O)[C@@H](C)/C=C/C=C/C=C/C=C/C=C/C=C/C=C/[C@H](O[C@@H]2O[C@H](C)[C@@H](O)[C@H](N)[C@@H]2O)C[C@@H]2O[C@](O)(C[C@@H](O)C[C@@H](O)[C@H](O)CC[C@@H](O)C[C@@H](O)CC(=O)O[C@H]1C)C[C@H](O)[C@H]2C(=O)O` [Amphotericin B, reference compound], the MIC stood at 1.6 µg/mL in [3] (setting [14]); 1.6 µg/mL in data set [3] (setting [15]); 1.6 µg/mL in [3] (setting [16]); 1.7 µM in [3] (setting [17]); 0.8 µg/mL (≈ 0.866 µM) in [7] (A. fumigatus (1)); 1.6 µg/mL (≈ 1.73 µM) in data set [7] (A. fumigatus (2)). The MIC in data set [7] (A. fumigatus (3)), in [9] (setting [18]), in data set [9] (setting [19]) and in data set [9] (setting [20]) was 0.8 µg/mL (≈ 0.866 µM) throughout. The “cmc (critical micelle concentration)” value in data set [4] came to 1.1 µM. Further, in [5] (similar to Example I product (<10 μg/ml)), the “solubility in water” value is “low solubility”. Besides, the 50% haemolytic concentration (HC50) at 1 h in data set [6] turned out to be 1.8 µM. Besides, the “critical micelle concentration” value in data set [10] is listed as “very low critical micelle concentration”. Besides, the “concentration needed for hemolysis relative to critical micelle concentration” value in data set [11] is on record as “must be greater than their critical micelle concentration”. Further, in data set [8], the pEC50 was 7.00. Besides, the percent survival in [12] (day 2 post-infection) is recorded as 100%; in data set [12] (day 3 post-infection), 100%; in data set [12] (day 4 post-infection) it was 100%; in [12] (day 5 post-infection) it was 100%; in data set [12] (day 6 post-infection), 100%; in data set [12] (day 7 post-infection), 90%. In data set [12] (day 30 post-infection), this compound displayed a percent survival of 90%. The “sensitivity to Amphotericin B in vitro” value in data set [13] was 0.03 to 1.0 µg/mL.
